The values that follow come from PubChem BioAssay AID1645868 (Buhrlage Lab, Dana-Farber Cancer Institute and Novartis …, 2021).

This assay has as its target OTU domain-containing protein 3 (Homo sapiens) (UniProt Q5T2D3). Description: Validation of screening hits, potency titration, in vitro enzymatic, OTU domain-containing protein 3 DUB inhibitors (AID 1645868). The conditions noted are these: purified OTUD3, ubiquitin-rhodamine cleavage fluorescence, 2 h.

The source made the active and inactive calls.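 Rule for the calls: active = maximal percent inhibition of the deubiquitinase OTUD3 of at least 30% across the tested doses; inactive = the rest.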 A value given as a limit tells only on which side of the number the result lay.

Sequence of OTU domain-containing protein 3 (Homo sapiens) (Q5T2D3 whole entry, looked up, the tested form may be a part): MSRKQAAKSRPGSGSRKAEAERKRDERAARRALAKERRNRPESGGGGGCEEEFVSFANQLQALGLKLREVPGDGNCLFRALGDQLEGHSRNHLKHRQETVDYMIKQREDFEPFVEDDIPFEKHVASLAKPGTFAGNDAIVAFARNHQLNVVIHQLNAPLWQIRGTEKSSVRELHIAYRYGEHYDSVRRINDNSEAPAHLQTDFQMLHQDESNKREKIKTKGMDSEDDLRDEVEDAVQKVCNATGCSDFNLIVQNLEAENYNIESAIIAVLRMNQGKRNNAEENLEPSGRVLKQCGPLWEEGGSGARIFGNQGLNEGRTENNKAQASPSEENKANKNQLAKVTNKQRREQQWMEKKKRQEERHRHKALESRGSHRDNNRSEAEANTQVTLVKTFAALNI

Regarding `O=C(COC(=O)c1cc(Cl)ccc1O)Nc1ccc2c(c1)OCCO2`, the IC50 is 37.1 µM.

As for `COc1cc2c(c3oc4cccc(O)c4c(=O)c13)C1C=COC1O2` (stereo unspecified), the IC50 is > 50 µM (inactive). As to `Cc1nn(-c2nc3ccccc3[nH]2)c2c1C(c1cccs1)CC(=O)N2` (stereo unspecified), the IC50 was > 50 µM (inactive). For `Cc1cc(C)c(O)c(-c2cc(C(=O)Nc3ccccc3Cl)[nH]n2)c1`, the IC50 is 12.7 µM.

For the compound `O=C1c2ccccc2NC2(C(=O)Nc3ccc(Br)cc32)N1c1ccccc1` (stereo unspecified), the IC50 is > 50 µM (inactive). Consider `Cc1cc(O)c2c3c(c(O)c4c(c13)O[C@@H](C)C4(C)C)C(=O)C2=O`, for which the IC50 is 31.9 µM.

For `Cn1cccc1C(=O)N1CCCC2(C1)Nc1cccnc1NC2=NC1CCCC1` (stereo unspecified), the IC50 is > 50 µM (inactive). Turning to `Cc1cc(CSc2ncccc2C(=O)Nc2ccnn2Cc2cccnc2)no1`, the IC50 is > 50 µM (inactive). Consider `Cn1c(=O)c2c(nc3n(-c4ccccc4F)c(-c4ccccc4)cn23)n(C)c1=O`, for which the IC50 was > 50 µM (inactive). Take `O=C(NC1CC1)c1ccnn1-c1ccc2ccc(-c3ccncc3)cn12`: the IC50 is > 50 µM (inactive). Turning to `Cc1c(C(=O)NCc2cccc(Br)c2)oc2c1-c1[nH]ncc1CC2`, the half-inhibitory concentration (IC50) was 48.2 µM. For the compound `Cc1ccc(C(=O)Nc2ccc(S(=O)(=O)N3CCCC3)cc2)cc1Br`, the IC50 was > 50 µM (inactive).

On to `O=C1C[C@@H](O)[C@H](O)[C@@]23O[C@@]12C1(Oc2cccc4cccc(c24)O1)[C@@H]1O[C@@H]1[C@@H]3O`, for which the half-inhibitory concentration (IC50) is 41.3 µM. Next, `Cc1ccc(NC(=O)c2ccc3nn(CC(=O)Nc4ccc(F)cc4F)c(=O)n3c2)cc1`: > 50 µM (inactive); `Cc1cc(C)c2nc3c(cc2c1)CN(Cc1ccco1)C(=O)O3`: > 50 µM (inactive); `CC(=O)C1=C(O)[C@]2(O)C(=O)c3c(c(C)c4ccc(C)c(O)c4c3O)C[C@H]2[C@@H](N)C1=O`: 2.13 µM. For `Cc1ccccc1NC(=O)Cn1cc(-c2nc(C3CC3)no2)ccc1=O`, the IC50 is > 50 µM (inactive).

`CC(C)Cc1nc2oc3c(N(C)CCO)ncnc3c2c2c1CCC2`: the IC50 is > 50 µM (inactive). Turning to `Cn1c(=O)[nH]c2nncnc2c1=O`, the IC50 is > 50 µM (inactive). For `O=C(NCc1ccc(F)cc1)C1CCN(c2cnc(N3CCCCC3)nc2)CC1`, the IC50 is > 50 µM (inactive). On to `CC(C)=CCCC1(C)OC2=C(C(=O)c3cc(O)cc(O)c3C2=O)[C@H]2C=C(C)CC[C@H]21` (stereo partly specified), for which the IC50 was > 50 µM (inactive). Take `CCOc1ccc(-n2c(C)cc(/C=C(\C#N)c3nc4ccccc4[nH]3)c2C)cc1`: the IC50 is > 50 µM (inactive). As for `Cc1cc(C(=O)CN2CCN(Cc3ccc4c(c3)OCO4)CC2)c(C)n1-c1ccc2c(c1)OCO2`, the IC50 is > 50 µM (inactive). Regarding `O=C(Cc1cccnc1)Nc1ccc(N2CCN(C3CCCCC3)C2=O)nc1`, the IC50 is > 50 µM (inactive). As to `COc1ccc(NC(=O)C2CCCN(S(=O)(=O)N3CCCCCC3)C2)cc1` (stereo unspecified), the IC50 was > 50 µM (inactive). With `Cc1ccccc1Cc1nc(-c2ccc(=O)[nH]c2)no1`, the IC50 is > 50 µM (inactive). On to `Cc1ccccc1NC(=O)CNc1nc(Nc2ccccc2)nc(Nc2ccccc2)n1`, for which the IC50 was 21 µM. As to `O=C(c1cccnc1)N1CCC2(CC1)CC1(CO2)Nc2ccccc2-n2cccc21` (stereo unspecified), the IC50 is > 50 µM (inactive).

On to `Fc1ccccc1Cc1nc(-c2ccc3nncn3c2)no1`, for which the IC50 is > 50 µM (inactive). As to `N#Cc1ccccc1OCc1csc(-c2ccccc2)n1`, the IC50 was > 50 µM (inactive). For the compound `CN(C)c1ccc(/C=N/NC(=O)c2ccc(Cl)cc2)cc1`, the IC50 was 24.1 µM.

In the case of `COc1ccc(Cn2c(=O)[nH]c3cc(C(=O)NCCCN4CCN(c5cccc(Cl)c5)CC4)ccc3c2=O)cc1`, the IC50 was 10 µM. The value for `O=C(CNc1nc(Nc2ccccc2F)nc(Nc2ccccc2F)n1)Nc1ccccc1` was 42 µM.

On to `O=C(NCCc1ccco1)c1ccc(N2CCOc3ccccc32)s1`, for which the IC50 is 28.4 µM. Turning to `C[C@H](NC(=O)Cc1ccccc1F)c1nc2cc(-c3ccccc3F)ncn2n1`, the IC50 was > 50 µM (inactive). `Cc1ccc(OCCn2c(=N)n(C(C)C)c3ccccc32)cc1`: the IC50 was > 50 µM (inactive). For `Cc1ccc2cc(CNc3ccccc3)c(=O)n(CC(=O)Nc3ccccc3C)c2c1`, the IC50 was 26 µM.

Consider `CCc1ccc2c(c1)[C@]1(C(=O)N2)[C@@H]2C(=O)N(c3ccc(Cl)cc3Cl)C(=O)[C@@H]2[C@@H]2CCCN21`, for which the IC50 was > 50 µM (inactive). In the case of `COc1cc(Cl)ccc1C(=O)Nc1cccc(-n2cnnn2)c1C`, the IC50 was 16.3 µM.

In the case of `Cc1ccc2c(=O)c3c([nH]c2c1C)CCN(CC(=O)NCc1ccccc1)C3`, the IC50 is > 50 µM (inactive).

As for `O=C(CCCCn1c(=O)[nH]c2ccccc2c1=O)Nc1cccc(Cl)c1`, the IC50 is 21.6 µM.

In the case of `COc1cc(Cl)ccc1Nc1ncc(C(=O)Nc2cc(OC)c(OC)c(OC)c2)c2ccccc12`, the IC50 was 0.121 µM.

With `CC(=O)Nc1cc(-c2cccc(O)c2)cn2c(-c3cnn(C)c3)cnc12`, the IC50 was > 50 µM (inactive). For `c1ccc2c(Cc3nc(-c4ccncc4)no3)cccc2c1`, the IC50 was > 50 µM (inactive). The value for `O=C(CN1C(=O)COc2ccc(Cl)cc21)Nc1cccc2ncccc12` was > 50 µM (inactive); that for `O=C(Nc1ccc2c(c1)OCCO2)C1CCC(Cn2cnc3ccccc3c2=O)CC1` (stereo unspecified) was > 50 µM (inactive). For the compound `O=C(NCc1ccc2c(c1)OCO2)c1cc2c(s1)-c1ccccc1OC2`, the IC50 is 21.7 µM. For the compound `Cc1ccc(-n2cc(C(=O)NCc3cccnc3)nn2)cc1C`, the 50% inhibitory concentration (IC50) is 26.5 µM. Take `COc1cc2cc3c(c(O)c2c(O)c1-c1c(OC)cc2cc4c(c(O)c2c1O)C(=O)OC1CC(C)OC41)C(=O)OC1CC(C)OC31` (stereo unspecified): the IC50 was > 50 µM (inactive).

On to `COc1cccc2c1OCC(NS(=O)(=O)c1cc(C)ccc1C)C2` (stereo unspecified), for which the IC50 is > 50 µM (inactive). For the compound `Cc1cccc(-c2noc(CCn3c(=O)[nH]c4ccccc4c3=O)n2)c1`, the IC50 is > 50 µM (inactive). Regarding `COc1ccc(CCN2COc3c(cc(Cl)c4cccnc34)C2)cc1OC`, the IC50 is 21.7 µM. As for `COc1ccc(-n2nnc3c(SCC(=O)Nc4cc(C)on4)ncnc32)cc1`, the IC50 was > 50 µM (inactive). Next, `CCCCNC(=O)C1Sc2nnc(-c3ccccc3)n2NC1c1ccccc1` (stereo unspecified): 17.9 µM; `CN(CCc1ccccc1)c1nccc(N2CCN(C(=O)c3csc(-c4cccnc4)n3)CC2)n1`: > 50 µM (inactive); `Cn1c(COc2ccccc2)nnc1SCC(=O)Nc1ccc(N2CCOCC2)cc1`: 22.5 µM. Consider `COc1cc2c(oc(=O)c3cc(C)cc(OC)c32)c2c([C@@H]3OC(C)[C@@H](O)[C@@](C)(O)C3O)ccc(O)c12` (stereo partly specified), for which the IC50 is > 50 µM (inactive). Next, `CCOC(=O)c1cnn(-c2ccc(C(=O)Nc3ccc(C)c(Cl)c3)cc2)c1N`: > 50 µM (inactive). `c1coc(CNc2nc3ccccc3n3nnnc23)c1`: the IC50 was > 50 µM (inactive).

Regarding `CC(=O)O[C@H]1[C@]2(O)C[C@]34SS[C@](CO)(C(=O)N3[C@@H]2C[C@@]12O[C@@H](C)C(C)(C)C2=O)N(C)C4=O`, the IC50 was > 50 µM (inactive).

In the case of `Cc1ccccc1C(=O)NCCn1cc(SCC(=O)Nc2ccc3c(c2)OCCO3)c2ccccc21`, the IC50 was > 50 µM (inactive).
